The viscosity is the resistance of a fluid to flow. Read a low viscosity as easy flow.

The structures appear in SMILES notation. “And” between values parts separate entries of the source, which are not always exact repeats. Equal values may be shown once. ± gives the uncertainty stated by the source.

Regarding `c1ccsc1`, the viscosity (293.15 K, 101 kPa) is listed as 0.653 ± 0.065 mPa·s; the viscosity (298.15 K, 100 kPa) amounted to 0.655 ± 0.094 mPa·s; the viscosity (298.15 K, 101 kPa) is 0.62 ± 0.01 mPa·s and 0.615 ± 0.062 mPa·s; the viscosity (303.15 K, 101 kPa) was determined as 0.58 ± 0.058 mPa·s; the viscosity (308.15 K, 100 kPa) was found to be 0.585 ± 0.091 mPa·s; the viscosity (308.15 K, 101 kPa) is 0.54 ± 0.01 mPa·s and 0.545 ± 0.055 mPa·s. Also, the viscosity reads like this: (313.15 K, 101 kPa) 0.518 ± 0.052 mPa·s; (318.15 K, 100 kPa) 0.525 ± 0.088 mPa·s; (318.15 K, 101 kPa) 0.48 ± 0.01 mPa·s and 0.491 ± 0.049 mPa·s; (323.15 K, 101 kPa) 0.464 ± 0.047 mPa·s.
As for `CC(F)F`, the viscosity came out at 0.172 ± 0.0047 mPa·s (293.35 K, 101 kPa); 0.177 ± 0.0049 mPa·s (294.75 K, 101 kPa); 0.1402 ± 0.0038 mPa·s (313.35 K, 101 kPa); 0.1409 ± 0.0038 mPa·s (314.25 K, 101 kPa).
As to `NCCO.O=CO`, the viscosity is 268.9 ± 21 mPa·s (293.15 K, 101 kPa); 79.13 ± 8.1 mPa·s and 79.13 ± 32 mPa·s (298.15 K, 100 kPa); 198.1 ± 16 mPa·s (298.15 K, 101 kPa); 63.01 ± 6.4 mPa·s and 63.01 ± 25 mPa·s (303.15 K, 100 kPa); 149.5 ± 11 mPa·s (303.15 K, 101 kPa); 51.79 ± 5.2 mPa·s and 51.79 ± 21 mPa·s (308.15 K, 100 kPa). Further, the viscosity (308.15 K, 101 kPa) came out at 115.4 ± 8.3 mPa·s; the viscosity (313.15 K, 100 kPa) was 43.03 ± 4.4 mPa·s and 43.03 ± 17 mPa·s; the viscosity (313.15 K, 101 kPa) came out at 91 ± 6.2 mPa·s; the viscosity (318.15 K, 100 kPa) is 36.34 ± 3.7 mPa·s and 36.34 ± 15 mPa·s; the viscosity (318.15 K, 101 kPa) amounted to 72.85 ± 4.8 mPa·s; the viscosity (323.15 K, 100 kPa) is 30.76 ± 3.1 mPa·s and 30.76 ± 12 mPa·s. Besides, the viscosity (323.15 K, 101 kPa) turned out to be 58.64 ± 3.8 mPa·s.
`CC(C)CCCC(C)CCCC(C)CCCC(C)C` (stereo not drawn) displayed a viscosity (298.15 K, 101.33 kPa) of 5.479 ± 0.066 mPa·s.
`CCCCCCCCCCCCO` displayed a viscosity (303.15 K, 101.33 kPa) of 12.95 ± 0.12 mPa·s.
As to `CCc1cccc(CC)c1`, the viscosity runs as follows: (293.15 K, 102 kPa) 0.852 ± 0.023 mPa·s; (303.15 K, 102 kPa) 0.751 ± 0.022 mPa·s; (313.15 K, 102 kPa) 0.668 ± 0.022 mPa·s; (323.15 K, 102 kPa) 0.598 ± 0.022 mPa·s.
For the compound `CCCCCCCCN`, the viscosity runs as follows: (303.15 K, 101 kPa) 1.169 ± 0.023 mPa·s and 1.169 ± 0.013 mPa·s and 1.165 ± 0.0096 mPa·s; (303.15 K, 101.33 kPa) 1.165 ± 0.0096 mPa·s; (308.15 K, 101 kPa) 0.9267 ± 0.095 mPa·s and 0.9267 ± 0.012 mPa·s; (313.15 K, 101 kPa) 0.9864 ± 0.0085 mPa·s; (313.15 K, 101.33 kPa) 0.9864 ± 0.0085 mPa·s.

Source of the values: the CheMixHub viscosity set.
